For test [1], the system named is γ-H2AX in cyclin D1^-/- rescue MEFs. The test is described as follows: γ-H2AX abundance / H2A Ser139 phosphorylation after doxorubicin. It is filed as cell-based, mouse. The conditions noted are these: cyclin D1^WT rescued cyclin D1^-/- MEFs, p20 and p21, Western blot. How it is done:
Whole-cell lysates (50 μg) were separated by 10% SDS-PAGE gel, and the proteins were transferred to nitrocellulose membrane for Western blotting using the following antibodies: anti-FLAG antibody (M2 Aldrich, #F1804, St. Louis, MO), anti-GST (Cell Signaling, #2624, Danvers, MA), anti-β-tubulin (Santa Cruz Biotechnology, #sc-55529, Santa Cruz, CA), anti-Vinculin (Sigma-Aldrich, #V9131 St. Louis, MO), Topoisomerase 2 A (Santa Cruz Biotechnology, #sc-365916, Santa Cruz, CA), Histone 2B Serine 14 P (Santa Cruz Biotechnology, #sc-31671, Santa Cruz, CA), Histone 2B (Santa Cruz Biotechnology, #sc-10808, Santa Cruz, CA), γH2A.X (Cell Signaling, #9718, Danvers, MA) and H2A.X (Cell Signaling, #2595, Danvers, MA).

Test [2] has as its system cyclin D1-/- 3T3 rescue cells. The test is described as follows: Etoposide sensitivity (cell viability). It is filed as cell-based, mouse. Conditions: 5, 10 µM, 24 h, N=6.
Test [3] concerns CDK4. The test can be described thus: Mammalian two-hybrid, 293 T. Format: cell-based, human. The conditions noted are these: 293 T cells, Fig. S7. The method, then:
Mammalian two-hybrid was conducted following the manufacturer’s instruction (Promega, Madison, WI). The human CDK4 cDNA was cloned into pBIND vector, and the human cyclin D1 cDNA (wild type or mutants) was cloned into pACT vector to generate fusion proteins with the DNA-binding domain of Gal4 (Gal4-CDK4), and the activation domain of VP16 (VP16-cyclin D1), respectively. Gal4-CDK4, VP16-cyclin D1 and pG5-Luc reporter containing five copies of Gal4 binding sites upstream of a minimal TATA box and the firefly luciferase gene (Promega) were co-transfected into MCF-7 or HEK-293T cells with Superfect reagent 48 h after transfection, the cells were lysed, and the amount of luciferase activity was quantitated. Transfection efficiency was normalized using renilla luciferase.

For the compound `COc1cccc2c1C(=O)c1c(O)c3c(c(O)c1C2=O)C[C@@](O)(C(=O)CO)C[C@@H]3O[C@H]1C[C@H](N)[C@H](O)[C@H](C)O1` [doxorubicin], the γ-H2AX abundance entry in test [1] is reported as “increased”.

For `COc1cc([C@@H]2c3cc4c(cc3[C@@H](O[C@@H]3O[C@@H]5CO[C@@H](C)O[C@H]5[C@H](O)[C@H]3O)[C@H]3COC(=O)[C@H]23)OCO4)cc(OC)c1O` [etoposide], in test [2] (cyclin D1 rescued cells), the sensitivity to etoposide entry is recorded as “more sensitive”. In test [2] (upon deletion of the E domain), the “change in sensitivity to etoposide” value is “modest but significant reduction in sensitivity”.

“E278/280 A: cyclin D1 double point mutant within the E region”: the CDK4 binding entry in test [3] is “maintained enhanced binding”.

Consider “E278A: cyclin D1 point mutant within the E region”, for which, in test [3], the CDK4 binding entry is “maintained enhanced binding”.

Turning to “E280A: cyclin D1 point mutant within the E region”, the CDK4 binding entry in test [3] was “maintained enhanced binding”.

The values are drawn from publication PMC10774418, “A cyclin D1 intrinsically disordered domain accesses modified histone motifs to govern gene transcription” (Oncogenesis, 2024).
